The record followed here is ChEMBL document CHEMBL1201862, “PubChem BioAssay data set” (2004).

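Compound exposure: 48 hours, 5 concentrations, 96-well plates. GI50 is the concentration that inhibits growth by half.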 Active and inactive are the calls of the source. Cut-off read from the data, not from the text of the source: active = GI50 up to about 1.1 µM and inactive = higher.

Among the test systems are NCI-H460; HCC 2998; OVCAR-4; SK-OV-3; A498; NCI/ADR-RES; SNB-75; Malme-3M; RPMI-8226; SF-268; TK-10; Hs-578T; SNB-19; A549; COLO 205; HCT-116; UACC-62; MDA-MB-231; SK-MEL-28; MOLT-4.
Test in all cases: NCI anticancer screen, dose series, 48 h

For `O=c1c2ccccc2c2ccccc2c(=O)n1-c1cc2c3ccccc3ccc2c2ccccc12`, the GI50 in the assay on NCI-H460 is > 100 µM (inactive); with HCC 2998 it was 22.3 µM (inactive); with OVCAR-4 it was > 100 µM (inactive); with SK-OV-3 it was > 100 µM (inactive); in the assay with A498 it was > 100 µM (inactive); in the assay with NCI/ADR-RES it was > 100 µM (inactive). Besides, the GI50 in the assay with SNB-75 is > 100 µM (inactive); with Malme-3M it was > 100 µM (inactive); in the assay on RPMI-8226, 60.3 µM (inactive); with SF-268 it was > 100 µM (inactive); in the assay with TK-10, > 100 µM (inactive); in the assay on Hs-578T it was > 100 µM (inactive). Further, the GI50 in the assay with SNB-19, in the assay on A549, in the assay on COLO 205, in the assay with HCT-116, in the assay with UACC-62 and in the assay on MDA-MB-231 was > 100 µM (inactive) throughout. Besides, the GI50 in the assay on SK-MEL-28 was > 100 µM (inactive).

Turning to `O=[N+]([O-])/C(C(Cl)=C(Cl)Cl)=C(\Nc1cccc2cccnc12)SCc1ccccc1`, the GI50 in the assay with NCI-H460 is 21 µM (inactive); in the assay with HCC 2998 it was 18.2 µM (inactive); in the assay on OVCAR-4, 24.4 µM (inactive); in the assay on SK-OV-3 it was 15.8 µM (inactive); with A498, 26.7 µM (inactive); in the assay with NCI/ADR-RES, 21.2 µM (inactive). Further, the GI50 with SNB-75 was 18.3 µM (inactive); in the assay with Malme-3M, 15.3 µM (inactive); with RPMI-8226, 22.3 µM (inactive); in the assay with SF-268, 17.3 µM (inactive); in the assay on MOLT-4, 2.21 µM (inactive); with Hs-578T, < 0.01 µM (active). Further, the GI50 was 16.7 µM (inactive) with SNB-19; 31.3 µM (inactive) in the assay on A549; 18.8 µM (inactive) in the assay with COLO 205; 19.8 µM (inactive) with HCT-116; 23.3 µM (inactive) with UACC-62; 27.3 µM (inactive) with MDA-MB-231. Also, the GI50 in the assay with SK-MEL-28 was 19 µM (inactive).

In the case of `Cc1ccc(Nc2nc(=O)[nH]c(=O)[nH]2)cc1N`, the GI50 with NCI-H460, in the assay on HCC 2998, in the assay on OVCAR-4, in the assay on SK-OV-3, in the assay on A498 and in the assay on NCI/ADR-RES was > 100 µM (inactive) in each case. In addition, the GI50 with SNB-75, in the assay on Malme-3M, in the assay on RPMI-8226, in the assay with SF-268, in the assay with TK-10 and with Hs-578T was > 100 µM (inactive) throughout. The GI50 with SNB-19, in the assay on A549, in the assay with COLO 205, with HCT-116, with UACC-62 and with MDA-MB-231 was > 100 µM (inactive) in each case. For the same molecule, the GI50 in the assay on SK-MEL-28 was 32.7 µM (inactive).

For the molecule `CCCCn1c(C)c(C(=O)OCC)s/c1=N/Nc1nc2ccccc2nc1-c1ccccc1`, the GI50 is > 100 µM (inactive) in the assay with NCI-H460; > 100 µM (inactive) in the assay on HCC 2998; 65 µM (inactive) in the assay with OVCAR-4; 53.3 µM (inactive) with SK-OV-3; 58.5 µM (inactive) in the assay on A498; > 100 µM (inactive) with NCI/ADR-RES. In addition, the GI50 was > 100 µM (inactive) in the assay on SNB-75; 86.3 µM (inactive) with RPMI-8226; > 100 µM (inactive) in the assay on MOLT-4; > 100 µM (inactive) with TK-10; 26.2 µM (inactive) in the assay on Hs-578T; 40.6 µM (inactive) in the assay on SNB-19. In addition, the GI50 was 50.4 µM (inactive) with A549; > 100 µM (inactive) in the assay on COLO 205; > 100 µM (inactive) in the assay on HCT-116; > 100 µM (inactive) in the assay on UACC-62; 39.3 µM (inactive) in the assay with MDA-MB-231; > 100 µM (inactive) with SK-MEL-28.

Take `N/N=C1\C(OC(=O)Nc2ccccc2)=Nc2ccccc21`: the GI50 in the assay on NCI-H460 was 10.9 µM (inactive); with HCC 2998 it was 15.3 µM (inactive); with OVCAR-4 it was 12.8 µM (inactive); in the assay on SK-OV-3, 19.8 µM (inactive); in the assay with A498 it was 17.1 µM (inactive); with NCI/ADR-RES it was 30.3 µM (inactive). Also, the GI50 is 22.8 µM (inactive) with SNB-75; 13.2 µM (inactive) in the assay with Malme-3M; 10.3 µM (inactive) in the assay on RPMI-8226; 36.1 µM (inactive) in the assay on SF-268; 23 µM (inactive) in the assay on TK-10; 36.2 µM (inactive) in the assay with Hs-578T. For the same molecule, the GI50 in the assay with SNB-19 is 26.8 µM (inactive); in the assay with A549, 17 µM (inactive); with COLO 205, 17.3 µM (inactive); with HCT-116, 14.2 µM (inactive); in the assay on UACC-62, 14.8 µM (inactive); in the assay on MDA-MB-231, 18.6 µM (inactive). Also, in the assay on SK-MEL-28, the GI50 is 60 µM (inactive).

As for `NC(=O)NC(=O)c1cccc(NC(=O)CI)c1`, the GI50 in the assay on NCI-H460 was 0.0485 µM (active); with HCC 2998, 0.228 µM (active); in the assay on OVCAR-4, 0.148 µM (active); in the assay with SK-OV-3, 0.0607 µM (active); in the assay with A498, 0.231 µM (active); with NCI/ADR-RES, 0.039 µM (active). The GI50 with SNB-75 was 0.235 µM (active); in the assay with RPMI-8226, < 0.0128 µM (active); in the assay on SF-268, 0.0254 µM (active); in the assay on MOLT-4, < 0.01 µM (active); in the assay on TK-10, < 0.0146 µM (active); in the assay with Hs-578T, 0.0398 µM (active). For the same molecule, the GI50 in the assay on SNB-19 is 0.646 µM (active); in the assay on A549, 0.805 µM (active); with COLO 205, < 0.01 µM (active); with HCT-116 it was < 0.01 µM (active); in the assay with UACC-62 it was < 0.0152 µM (active); in the assay with MDA-MB-231, 0.0622 µM (active). Besides, the GI50 in the assay on SK-MEL-28 was 0.389 µM (active).

`CC1=CC(=O)/C(=C/n2c(=S)[nH]c3ccccc32)C(=O)O1`: the GI50 with NCI-H460, in the assay with HCC 2998, with OVCAR-4, in the assay with SK-OV-3, in the assay on A498 and in the assay on NCI/ADR-RES was > 100 µM (inactive) in each case. Further, the GI50 with SNB-75 was 35.7 µM (inactive); in the assay with RPMI-8226, > 100 µM (inactive); in the assay with SF-268 it was > 100 µM (inactive); in the assay on MOLT-4, > 100 µM (inactive); in the assay with TK-10 it was > 100 µM (inactive); with Hs-578T it was 72.8 µM (inactive). The GI50 in the assay with SNB-19, in the assay on A549, in the assay on COLO 205, with HCT-116, with UACC-62 and in the assay with MDA-MB-231 was > 100 µM (inactive) in each case.

For the molecule `CC1OC(OC2C(O[C@H]3CC[C@@]4(C)C(=CC[C@H]5[C@@H]6C[C@@H]7O[C@]8(CC[C@@H](C)CO8)[C@@H](C)[C@@H]7[C@@]6(C)CC[C@@H]54)C3)OC(CO)C(O)C2OC2OC(CO)C(O)C(O)C2O)C(O)C(O)C1O` (stereo partly specified), the GI50 with NCI-H460 was 2.22 µM (inactive); in the assay on HCC 2998, 1.65 µM (inactive); in the assay with OVCAR-4 it was 1.58 µM (inactive); in the assay on SK-OV-3 it was 1.8 µM (inactive); with A498, 1.44 µM (inactive); with NCI/ADR-RES, 2.24 µM (inactive). For the same molecule, the GI50 was 2.04 µM (inactive) in the assay with SNB-75; 1.69 µM (inactive) in the assay on Malme-3M; 2.54 µM (inactive) with RPMI-8226; 1.9 µM (inactive) with SF-268; 1.93 µM (inactive) with TK-10; 1.73 µM (inactive) in the assay with Hs-578T. Further, the GI50 in the assay with SNB-19 is 1.87 µM (inactive); in the assay with A549 it was 1.81 µM (inactive); in the assay with COLO 205, 1.73 µM (inactive); in the assay on HCT-116, 2.58 µM (inactive); in the assay with UACC-62, 2.33 µM (inactive); with MDA-MB-231, 1.47 µM (inactive). For the same molecule, the GI50 with SK-MEL-28 was 1.9 µM (inactive).

With `CC1(C)C(CCO)CC1n1cc(I)c(=O)[nH]c1=O` (stereo unspecified), the GI50 with HCC 2998, with OVCAR-4, with SK-OV-3, in the assay on A498, with NCI/ADR-RES and with SNB-75 was > 100 µM (inactive) in each case. Besides, the GI50 is > 100 µM (inactive) in the assay on RPMI-8226; > 100 µM (inactive) in the assay on SF-268; > 100 µM (inactive) in the assay on MOLT-4; > 100 µM (inactive) in the assay on TK-10; 90.6 µM (inactive) in the assay on Hs-578T; > 100 µM (inactive) in the assay on SNB-19. Also, the GI50 in the assay with A549 was > 100 µM (inactive); in the assay on COLO 205 it was > 100 µM (inactive); with HCT-116 it was > 100 µM (inactive); with UACC-62 it was 21.1 µM (inactive); in the assay with MDA-MB-231, 86.3 µM (inactive); in the assay with SK-MEL-28 it was > 100 µM (inactive).

Turning to `COc1ccc(Nc2nc3cc(C(F)(F)F)ccc3n3cccc23)cc1OC`, the GI50 in the assay on NCI-H460 is 10.4 µM (inactive); with HCC 2998, 14 µM (inactive); in the assay on SK-OV-3 it was 27.9 µM (inactive); in the assay with A498 it was 14.7 µM (inactive); in the assay on NCI/ADR-RES it was 15.6 µM (inactive); with SNB-75, 10.6 µM (inactive). The GI50 with Malme-3M was 24.2 µM (inactive); in the assay with RPMI-8226, 13.6 µM (inactive); in the assay with SF-268, 26.7 µM (inactive); in the assay on MOLT-4 it was 7.85 µM (inactive); in the assay with TK-10, 12.6 µM (inactive); with Hs-578T it was 29.2 µM (inactive). Besides, the GI50 was 19.4 µM (inactive) in the assay with SNB-19; 14.1 µM (inactive) with A549; 12.1 µM (inactive) in the assay with HCT-116; 15.5 µM (inactive) in the assay on UACC-62; 17.8 µM (inactive) in the assay with MDA-MB-231; 28.2 µM (inactive) in the assay on SK-MEL-28.
